Patent publication US20230210116A1, “HONEYBEE REPELLENT” (EARTH CORPORATION, priority 2020, published 2023)
Structures can show the parent of a compound that is named as a salt.

Legend:
stink bugs = experiment: Test for Confirmation of Stink Bug Behaviors against Active Ingredients 1, 2, 3 (treated filter paper); assay type: in vivo, southern green stink bugs
Text: The test samples in “Test for Confirmation of Honeybee Repelling Effect 1” above were used.
A liquid calcium carbonate/ethanol dispersion was applied on the entire interior wall of a KP cup (100 mm in diameter×90 mm in height) and air-dried, after which a filter paper (90 mm in diameter) was fixed on the bottom face of the KP cup using double-sided tape. A different filter paper (90 mm in diameter) was cut along its diameter and the resulting semicircle-shaped paper was uniformly treated with 400 μL of each test sample or sample for correction, and then placed over the filter paper fixed on the aforementioned bottom face of the KP cup by allowing the circular parts to overlap, for use as a testing device.
The “repelling rate Y” and “corrected repelling rate Z” were calculated from the above “time A (sec)” and “time B (sec)” using the calculation formula below. For the “repelling rate of sample for correction” used to calculate the “corrected repelling rate Z,” the repelling rate of each of the samples for correction above (ethanol alone or water alone being a solvent for the active ingredient) was used.
Corrected repelling rate Z (%)={Repelling rate of test sample−Repelling rate of sample for correction}/{100−Repelling rate of sample for correction}×100
For the test samples, the test samples in “Test for Confirmation of Honeybee Repelling Effect 2” above were used.

honeybees = experiment: Test for Confirmation of Honeybee Repelling Effect 1, 2, 3 (feeding station with 40% sugar water); assay type: in vivo; settings: for Corrected repelling rate (%) Honeybees: Test 3, 5 mL
Text: The following were used as the test samples for Examples: 2% by weight per volume ethanol solutions of octane (a-1), tetradecane (a-2), heptadecane (a-3), nonadecane (a-4), 2-acetylfuran (b-1), 5-methyl-2-furaldehyde (b-2), furfural (b-3), furaneol (c-1), 2-acetylpyrrole (d-1), 1-benzylpyrrole (d-2), 1-octanol (e-1), 1-dodecanol (e-2), and 1-octadecanol (e-3), respectively; and 2% by weight per volume aqueous solutions of furfuryl alcohol (b-4), sotolon (c-2), and α-angelicalactone (c-3), respectively.
The following were used as the test samples for Comparative Examples: 2% by weight per volume ethanol solutions of eicosane (carbon number 20, p-1), heneicosane (carbon number 21, p-2), 2-methyloctane (branched alkane, p-3), tributyl o-acetylcitrate (p-4), and 1-methylpyrrole (p-5), respectively; and 2% by weight per volume aqueous solutions of 2-methyltetrahydrofuran-3-one (p-6) and acetic acid (p-7), respectively.
Ethanol alone and water alone were used as samples for correction.
The cotton pads 13 were impregnated with 40% sugar water (80 g), after which disposable wooden chopsticks 15 (80 mm in length) were placed over the cotton pads on the lid surface as “landing areas,” for use as “test insect (honeybee) feeding station 1” 10.
A nest box of test insects (honeybees) (1 colony: approx. 6,000 bees) was placed at the center of a glass hothouse (bottom face: 5 m×10 m, height (highest part): 3 m, temperature: 25° C.), and the aforementioned “test insect (honeybee) feeding station 1” was installed at a location 2 meters away from the nest box.
After confirming that at least five test insects (honeybees) were feeding at the above “test insect (honeybee) feeding station 1” installed in the hothouse, test 1 was conducted to measure the “approaching count (Mz)” and “landing count (My)” and calculate the “landing rate (Mx).”
Next, the “test insect (honeybee) feeding station 1” installed in the hothouse was replaced with each “test insect (honeybee) feeding station 2” which was let to stand still for 5 minutes, after which test 2 was conducted to measure the “approaching count (Nz)” and “landing count (Ny)” and calculate the “landing rate (Nx).”
Approaching count: Total number of times a honeybee has approached within 25 cm of the cotton wools at the feeding station during 5 minutes
Landing count: Total number of honeybees that have remained for at least 1 second on the cotton pads at the feeding station during 5 minutes
Landing rate (%): (Landing count/Approaching count)×100
The “repelling rate Q” and “corrected repelling rate R” were calculated from the above “landing rates” using the calculation formula below. For the “repelling rate of sample for correction” used to calculate the “corrected repelling rate R,” the repelling rate of each of the samples for correction above (ethanol alone or water alone being a solvent for the active ingredient) was used.
Repelling rate Q (%)={(Mx)−(Nx)}/(Mx)×100
Corrected repelling rate R (%)={Repelling rate of test sample−Repelling rate of sample for correction}/{100−Repelling rate of sample for correction}×100
The following were used as the test samples for Examples: 0.1% by weight per volume ethanol solutions of 3-methyl-2-butanol (e-4), carvacrol (x-1), isoeugenol (x-2), cinnamyl alcohol (x-3), diacetone alcohol (x-4), α-amylcinnamaldehyde (x-5), 3-methyl-2-butenal (x-6), valeraldehyde (x-7), ethyl cinnamate (x-8), methyl cinnamate (x-9), ethyl isovalerate (x-10), isoamyl formate (x-11), 5-ethyl-2-methylpyridine (x-12), 2-(3-phenylpropyl)pyridine (x-13), 2,6-dimethylpyridine (x-14), ß-ionone (x-15), 2-acetylthiazole (x-16), butylamine (x-17), and citronella oil (x-18), respectively; and a 0.1% by weight per volume aqueous solution of (3-amino-3-carboxypropyl)dimethylsulfonium chloride (x-19).

[1] = Test 3, 0.1% by weight per volume solution, 400 μL
[2] = 0.1% by weight per volume solution
[3] = Test 2, 0.1% by weight per volume solution, 400 μL
[4] = Test 2, honeybees, 0.1% by weight per volume solution, 5 mL (active ingredient 5 mg)
[5] = Test 1, 2% by weight per volume solution, 400 μL on filter paper, 30 minutes
[6] = Test 1, 2% by weight per volume solution
[7] = Test 1, honeybees, 2% by weight per volume solution, 5 mL sprayed (active ingredient 0.1 g)

Row | Compound | repelling of stink bugs and other injurious insects to be exterminated (in words) (stink bugs) | Corrected repelling rate (%) Stinkbugs (stink bugs; [1]) | Corrected repelling rate (%) Honeybees (honeybees; [2]) [%] | further results
1 | CC1(C)C2CCC1(C)C(O)C2 (stereo not shown) [y-1, borneol] | not repelling stink bugs | ∘ | 80.0 | –
2 | c1ccc2cnccc2c1 [y-79, isoquinoline] | not repelling stink bugs | ∘ | 92.3 | –
3 | CC(=O)OCCc1ccccc1 [y-20, phenethyl acetate] | not repelling stink bugs | ∘ | 58.9 | –
4 | COc1ccc(C=O)cc1 [y-4, anisaldehyde] | – | – | 91.5 | Corrected repelling rate (%) Stinkbugs (stink bugs; 0.5 h, 0.1 % strength): x (“x” for rates “not <0”)
5 | CCCCCCCC1CCC(=O)O1 (stereo not shown) [y-63, γ-undecalactone] | not repelling stink bugs | – | – | –
6 | CC(C)CC=O [y-14, isovaleraldehyde] | not repelling stink bugs | ∘ | 65.5 | –
7 | CCCCN [x-17, butylamine] | – | – | – | Corrected repelling rate (%) Stinkbugs (stink bugs; [3]): <0%; Corrected repelling rate R (%) (honeybees; [4]): 83.4%
8 | CC(C)=CCO [e-8, 3-methyl-2-buten-1-ol] | – | ∘ | 30.4 | –
9 | CC(C)=CC=O [x-6, 3-methyl-2-butenal] | – | – | – | Corrected repelling rate (%) Stinkbugs (stink bugs; [3]): <0%; Corrected repelling rate R (%) (honeybees; [4]): 91.8%
10 | CCCCCO [e-7, 1-pentanol] | not repelling stink bugs | ∘ | 68.9 | –
11 | CCc1ccc(C)nc1 [x-12, 5-ethyl-2-methylpyridine] | – | – | – | Corrected repelling rate (%) Stinkbugs (stink bugs; [3]): <0%; Corrected repelling rate R (%) (honeybees; [4]): 72.4%
12 | CCCCCCCCCCCCCC [a-2, tetradecane] | – | – | – | Corrected repelling rate (%) Stinkbugs (stink bugs; [5]): <0%; repelling effect / repelled behaviors of honeybees (in words) (honeybees; [6]): excellent repelling effect; Corrected repelling rate R (%) (honeybees; [7]): 96.5%
13 | c1coc(Cn2cccc2)c1 [d-3, 1-furfurylpyrrole] | – | ∘ | 25.4 | –
14 | COc1cc(OC)cc(C(=O)O)c1 [y-76, 3,5-dimethoxybenzoic acid] | – | ∘ | 22.1 | –
15 | CC/C=C/C=O [y-10, trans-2-pentenal] | not repelling stink bugs | ∘ | 55.4 | –
16 | COc1ccc(C(=O)O)cc1OC [y-75, 3,4-dimethoxybenzoic acid] | not repelling stink bugs | ∘ | 70.6 | –
17 | CCOc1cc(C=O)ccc1O [y-6, ethyl vanillin] | – | – | 60.3 | Corrected repelling rate (%) Stinkbugs (stink bugs; 0.5 h, 0.1 % strength): x (“x” for rates “not <0”)
18 | OCC=Cc1ccccc1 [x-3, cinnamyl alcohol] | – | – | – | Corrected repelling rate (%) Stinkbugs (stink bugs; [3]): <0%; Corrected repelling rate R (%) (honeybees; [4]): 98.2%
19 | CC(=O)OCC=Cc1ccccc1 [y-18, cinnamyl acetate] | not repelling stink bugs | ∘ | 69.0 | –
20 | CC(=O)OC/C=C(\C)CCC=C(C)C [y-27, geranyl acetate] | not repelling stink bugs | ∘ | 68.0 | –

Row | Compound | repelling of stink bugs and other injurious insects to be exterminated (in words) (stink bugs) | Corrected repelling rate (%) Stinkbugs (stink bugs; [1]) | Corrected repelling rate (%) Honeybees (honeybees; [2]) [%] | further results
21 | CC(C)C(C)O (stereo not shown) [e-4, 3-methyl-2-butanol] | – | – | – | Corrected repelling rate (%) Stinkbugs (stink bugs; [3]): <0%; Corrected repelling rate R (%) (honeybees; [4]): 17.7%
22 | CCOC(=O)C=Cc1ccccc1 [x-8, ethyl cinnamate] | – | – | – | Corrected repelling rate (%) Stinkbugs (stink bugs; [3]): <0%; Corrected repelling rate R (%) (honeybees; [4]): 21.8%
23 | CCC(=O)Oc1c(C)occc1=O [y-96, maltol propionate] | not repelling stink bugs | ∘ | 57.5 | –
24 | CCOC(=O)CC(C)C [x-10, ethyl isovalerate] | – | – | – | Corrected repelling rate (%) Stinkbugs (stink bugs; [3]): <0%; Corrected repelling rate R (%) (honeybees; [4]): 61.0%
25 | C[S+](C)CCC(N)C(=O)O.[Cl-] (stereo not shown) [x-19, (3-amino-3-carboxypropyl)dimethylsulfonium chloride] | – | – | – | Corrected repelling rate (%) Stinkbugs (stink bugs; [3]): <0%; Corrected repelling rate R (%) (honeybees; [4]): 40.9%
26 | CC(C)=CCC/C(C)=C/COC=O [y-28, geranyl formate] | not repelling stink bugs | ∘ | 98.0 | –
27 | CCCCC=O [x-7, valeraldehyde] | – | – | – | Corrected repelling rate (%) Stinkbugs (stink bugs; [3]): <0%; Corrected repelling rate R (%) (honeybees; [4]): 50.7%
28 | CCCCCCC(=O)OCC [y-54, ethyl heptanoate] | – | ∘ | 20.9 | –
29 | CC1=CCC(=O)O1 [c-3, α-angelicalactone] | – | – | – | Corrected repelling rate (%) Stinkbugs (stink bugs; [5]): <0%; repelling effect / repelled behaviors of honeybees (in words) (honeybees; [6]): excellent repelling effect; Corrected repelling rate R (%) (honeybees; [7]): 31.7%
30 | Cc1ccc(C(C)C)cc1O [x-1, carvacrol] | – | – | – | Corrected repelling rate (%) Stinkbugs (stink bugs; [3]): <0%; Corrected repelling rate R (%) (honeybees; [4]): 80.6%
31 | O=CC=Cc1ccccc1 [y-5, cinnamaldehyde] | not repelling stink bugs | ∘ | 94.4 | honeybee repelling rate (honeybees; Test 3, summary in text): ≥ 50%
32 | C1CCNC1 [y-91, pyrrolidine] | – | – | 61.2 | Corrected repelling rate (%) Stinkbugs (stink bugs; 0.5 h, 0.1 % strength): x (“x” for rates “not <0”)
33 | OCc1ccco1 [b-4, furfuryl alcohol] | – | – | – | Corrected repelling rate (%) Stinkbugs (stink bugs; 0.5 h, 2 % strength): <0%; Corrected repelling rate R (%) (honeybees; 2 % strength): 94.8%
34 | CCc1occc(=O)c1O [y-95, ethyl maltol] | – | ∘ | 27.6 | –
35 | CC1OCCC1=O (stereo not shown) [p-6, 2-methyltetrahydrofuran-3-one, reference compound] | – | – | – | repelling effect / repelled behaviors of honeybees (in words) (honeybees; [6]): not observed at all; Corrected repelling rate R (%) (honeybees; [7]): <0%
36 | CC(=O)CC(C)=O [y-70, acetylacetone] | – | – | 21.5 | –
37 | C/C=C(\C)C=O [y-13, trans-2-methyl-2-butenal] | – | – | 67.4 | –
38 | CC(=O)c1ccccc1 [y-69, acetophenone] | – | – | – | Corrected repelling rate (%) Honeybees (honeybees; 2.0% by weight per volume solution): 98.9%
39 | CCCOC(=O)c1ccc(O)cc1 [y-16, propyl 4-hydroxybenzoate] | – | – | 89.7 | –
